The values that follow come from ChEMBL document CHEMBL1201862, “PubChem BioAssay data set” (2004).

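Dose response: 5 concentrations. Exposure: 48 h. Format: 96-well plates. Endpoint: linear interpolation; highest concentration if not reached. GI50 is the concentration that inhibits growth by half.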 The source made the active and inactive calls. No stated cut-off is given here; in the data, active = GI50 up to about 1.1 µM and inactive = higher.

What is called GI50 is the concentration at which growth is held to half of that of the control.

Some test systems named below: OVCAR-5; HCC 2998; RXF 393; Hs-578T; MOLT-4; SK-OV-3; SF-539; OVCAR-4; MDA-MB-231; Malme-3M; UACC-257; NCI-H522; SK-MEL-2; SNB-19; A549; SW-620; UO-31; HT-29; T47D; TK-10.
What all share (test): DTP human tumour cell line panel, 48 h

`S=C(NCCc1ccccn1)N/N=C(\c1ccccc1)c1ccccn1`: the GI50 was 7.82 µM (inactive) in the experiment on OVCAR-5; 12.1 µM (inactive) with HCC 2998; 2.4 µM (inactive) in the experiment on RXF 393; 20.5 µM (inactive) in the experiment with Hs-578T; < 0.01 µM (active) with MOLT-4; 0.815 µM (active) in the experiment on SK-OV-3. The 50% growth inhibitory concentration (GI50) in the experiment with SF-539 was 0.63 µM (active); in the experiment with OVCAR-4, 3.01 µM (inactive); in the experiment on MDA-MB-231, 0.0247 µM (active); in the experiment on Malme-3M, 0.0251 µM (active); in the experiment with UACC-257, 0.113 µM (active); in the experiment on NCI-H522 it was < 0.01 µM (active). Moreover, the GI50 with SK-MEL-2 was 21.5 µM (inactive); with SNB-19 it was 5.43 µM (inactive); in the experiment with A549, 3.4 µM (inactive); in the experiment on SW-620, 0.0331 µM (active); with UO-31, 1.23 µM (inactive); in the experiment with HT-29, < 0.01 µM (active). For the same molecule, the concentration for 50% growth inhibition (GI50) was < 0.0444 µM (active) in the experiment on T47D and 1.33 µM (inactive) in the experiment on TK-10.
